Assays:
primed hPSCs = test: Conversion of hPSCs from primed to naive pluripotency (Nanog+ cells among hNA+ human cells, dome-shaped colonies); assay type: cell-based; settings: for effect of removal of the component from 2iLI medium on Nanog+ cells and mESC-like colonies: primed H9 after Torin1 3 hr, 5 days culture on MEF
Description: Primed hPSCs were treated with 10 μM ROCK inhibitor Y27632 (Abcam) overnight in hESC medium. After being washed twice in phosphate-buffered saline (PBS), primed hPSCs were cultured in 2iLI medium with 10 μM Torin1 (Tocris) for 3 hours. 2iLI medium contained 50% glucose-free DMEM/F12 (Life Technologies) and 50% glucose-free Neurobasal (Life Technologies), 5 mM glucose, 1 mM glutamine, 1% NEAA, 0.1 mM […], 100 U/ml penicillin, 100 μg/ml streptomycin, 5 mg/mL bovine serum albumin (Sigma) to maintain osmolarity, 20 ng/mL recombinant human LIF (Millipore), […] human insulin (Sigma), 1 μM PD0325901 (PD, EMD Millipore), and 3 μM CHIR99021 (CH, Stemgent). For N004 iPSCs, 2iLI medium with 0.8 μM CHIR99021 was used instead. Then hPSCs were trypsinized into single cells using TrypLE (Life Technologies) for 5 min at 37° C. The single cells were plated on MEF feeders (5-6×10^4/cm^2) in 2iLI medium (without Torin1), which was changed daily. Small, bright, dome-shaped colonies appeared in 4-5 days and were picked manually at day 5-7 for dissociation by TrypLE into single cells, which were plated on fresh MEF cells. After several manual passages, mouse ESC-like colonies were uniformly seen and passaged every 3 days with TrypLE and maintained in 2iLI media (without Torin1). Immunostaining was performed using standard protocol to detect various antigens in cultured cells or frozen tissue sections. Briefly, cells or tissue sections were fixed in 4% paraformaldehyde (Sigma) for 20 min, treated with 0.1% Triton X-100 for 15 min at room temperature for permeabilization, blocked in 3% BSA for 1 hour at room temperature, and then incubated with the indicated primary antibodies (Table S1) overnight at 4° C. and secondary antibodies for 1 h at 37° C. Secondary antibodies were AlexaFluor 488, 594, and 647 (1:1,000, Thermo fisher Scientific). Alkaline phosphatase (AP) staining was performed using the Alkaline Phosphatase Kit (Millipore). Diaminobenzidine (DAB) staining was also used to detect GFP expression in frozen embryo sections according to manufacturer's protocol (Vector Laboratories). Briefly, the frozen sections on slides were thawed at room temperature for 5 min. Then the slides were treated with 0.3% H2O2 solution in PBS at room temperature for 10 min to block endogenous peroxidase activity, and then treated with 3% BSA for 45 min for blocking. The sections were incubated with primary antibody (anti-GFP) in 0.1% BSA for 30 min at room temperature, rinsed briefly in PBS 3 times (5 min each), and then incubated with biotinylated secondary antibody for 30 min followed by PBS rinsing for 3 times (5 min each). The sections were incubated with VECTASTAIN ABC reagent (Vector Laboratories) for 30 min, washed with PBS for 5 min. The sections were incubated with 100 μl peroxidase substrate solution (Sigma, D4293) on the slide under microscope until desired staining intensity and then washed with PBS to remove the substrate solution. For live imaging of mitochondria, primed or naive hPSCs were incubated in prewarmed hESC medium (for primed hPSCs) or 2iLI medium (for naive hPSCs) containing 50 nM MitoTracker Green FM or 100 nM TMRE (Life Technologies) for 15 min at 37° C. Then the staining medium was replaced with the corresponding prewarmed medium without dyes. Cells were then imaged on a Leica DMI6000B fluorescence microscope. Quantification of LC3II puncta was performed using NIH ImageJ with the AUTOCOUNTER pluggin, which calculates the percentage of cell area covered by LC3II puncta.

primed H9 hESCs = test: Autophagy by costaining for LC3 and Lamp1 (LC3II puncta); assay type: cell-based, human
Description: (§1) Immunostaining was performed using standard protocol to detect various antigens in cultured cells or frozen tissue sections. Briefly, cells or tissue sections were fixed in 4% paraformaldehyde (Sigma) for 20 min, treated with 0.1% Triton X-100 for 15 min at room temperature for permeabilization, blocked in 3% BSA for 1 hour at room temperature, and then incubated with the indicated primary antibodies (Table S1) overnight at 4° C. and secondary antibodies for 1 h at 37° C. Secondary antibodies were AlexaFluor 488, 594, and 647 (1:1,000, Thermo fisher Scientific). Alkaline phosphatase (AP) staining was performed using the Alkaline Phosphatase Kit (Millipore). Diaminobenzidine (DAB) staining was also used to detect GFP expression in frozen embryo sections according to manufacturer's protocol (Vector Laboratories). Briefly, the frozen sections on slides were thawed at room temperature for 5 min. Then the slides were treated with 0.3% H2O2 solution in PBS at room temperature for 10 min to block endogenous peroxidase activity, and then treated with 3% BSA for 45 min for blocking. […] Cells were then imaged on a Leica DMI6000B fluorescence microscope. Quantification of LC3II puncta was performed using NIH ImageJ with the AUTOCOUNTER pluggin, which calculates the percentage of cell area covered by LC3II puncta.

TFE3 = test: Torin1/rapamycin-induced nuclear translocation of TFE3 (immunostaining); assay type: cell-based, human; settings: primed H9 hESCs; inhibition of mTor
Description: We named this medium 2iLI.
as §1

In the case of `CCC(=O)N1CCN(c2ccc(-n3c(=O)ccc4cnc5ccc(-c6cnc7ccccc7c6)cc5c43)cc2C(F)(F)F)CC1` [Torin1], the “conversion of hPSCs from primed to naive pluripotency” value (primed hPSCs; transient treatment (10 μM for 3 hr) in 2iLI medium, 5 mM glucose, 5% O2) is reported as “converted hPSCs from primed to naive pluripotency”, the “induction of autophagy, combined treatment” value (primed H9 hESCs; 2iLI medium with 5 mM glucose and 10 μM Torin1 for 3 hr) is reported as “induced autophagy most prominently” and the induction of autophagy (primed H9 hESCs; primed H9 in hESC medium, mTor inhibition for 3 hr) is reported as “induced autophagy”. The “translocation of TFE3 from cytoplasm to nucleus” value (TFE3) was “induced rapid translocation of TFE3 from cytoplasm to nucleus”.

With `O=C(NOC[C@H](O)CO)c1ccc(F)c(F)c1Nc1ccc(I)cc1F` [PD, PD0325901] the “effect of removal of the component from 2iLI medium on Nanog+ cells and mESC-like colonies” value (from here on “effect of removal of the component”) (primed hPSCs) was “drastically reduced Nanog^+ cells and mESC-like colonies”.

With “human LIF: recombinant human Leukemia Inhibitory Factor, component of 2iLI medium” the “effect of removal of the component” value (primed hPSCs) was “drastically reduced Nanog^+ cells and mESC-like colonies”.

In the case of `Cc1c[nH]c(-c2cnc(NCCNc3ccc(C#N)cn3)nc2-c2ccc(Cl)cc2Cl)n1` [CHIR99021], the “optimized concentration for conversion of N004 iPSCs to naive state” value (primed hPSCs; N004 iPSCs, all other conditions as in 2iLI medium, percentage of human cells positive for Nanog) is reported as 0.8 µM and the “effect of removal of the component” value (primed hPSCs) is reported as “drastically reduced Nanog^+ cells and mESC-like colonies”.

With `CNC(=O)c1ccccc1Oc1nc(Nc2cc(OC)c(OC)c(OC)c2)ncc1Br` [SBI-0206965] the “effect on primed-to-naive conversion of blocking autophagy” value (primed hPSCs; primed H9 treated 3 hr, with 2iLI and Torin1, Nanog+ of hNA+ cells after five days) was “not significantly affected”.

In the case of “human insulin: human insulin, component of 2iLI medium”, the “percentage of Nanog+ cells among all human cells (hNA+) on replacing N2 and B27 supplements” value (primed hPSCs; primed H9, Torin1 10 μM 3 hr, human insulin 18 μg/ml, about 5 days on MEF feeders) is reported as “much higher percentage of Nanog^+ cells” and the “effect of removal of the component” value (primed hPSCs) is reported as “drastically reduced Nanog^+ cells and mESC-like colonies”.
